Measurements published in patent publication US8431536B2, “Target for breast cancer therapy and/or diagnosis” (The University of Queensland, priority 2007, dated 2013).

System: MCF-7 breast cancer cells
Experiment: MTS proliferation/viability assay in MCF-7 breast cancer cells
Format: cell-based
Settings: 50 μM, treated on plating in 10% foetal bovine serum, MTS 72 hrs after plating, p<0.05 vs methanol control (FIG. 8)
Method: FIG. 6 The effect of siRNA to CRACM1 (96 hrs) on the viability of MCF-7 cells, as measured by an MTS assay for cellular proliferation. Normalized MTS absorbance (proliferation/viability) of the mean of 3 independent experiments in MCF-7 breast cancer cells (±SEM). For each experiment absorbance was assessed in quadruplicate. Experiment was performed in 1% foetal bovine serum (p<0.05).
FIG. 8 MTS assay of MCF-7 cells treated with 50 μM 2-APB. * p<0.05 compared with respective methanol control. Error bars=SD. Cells were treated with 2-APB on plating in 10% foetal bovine serum. MTS assay was performed 72 hrs after plating.

NCCOB(c1ccccc1)c1ccccc1 [2-APB, 2-aminoethoxydiphenyl borate]
proliferation/viability of MCF-7 cells (MTS assay): inhibits the proliferation/viability of MCF-7 breast
